This test has as its system CD2F1 mice, L1210 leukemia ip, survival T/C. In words: NCI In Vivo Anticancer Drug Screen. Data for tumor model L1210 Leukemia (intraperitoneal) in CD2F1 (CDF1) mice. The conditions noted are these: higher = longer survival. The method in brief:
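Implant tumor; dose compound or vehicle; measure endpoint in both groups; report treated divided by control.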

The mark [1] stands for this setting: endpoint: mean survival time, dose: 100.0 mg/kg/injection, schedule: Q04DX003 (ip), vehicle: saline with Tween-80.
The mark [2] stands for this setting: endpoint: mean survival time, dose: 100.0 mg/kg/injection, schedule: Q04DX003 (ip), vehicle: saline.
Where [3] appears, read: endpoint: mean survival time, dose: 200.0 mg/kg/injection, schedule: Q04DX003 (ip), vehicle: saline with Tween-80.
Setting [4] is: endpoint: mean survival time, dose: 200.0 mg/kg/injection, schedule: Q04DX003 (ip), vehicle: saline.
[5] abbreviates: endpoint: mean survival time, dose: 400.0 mg/kg/injection, schedule: Q04DX003 (ip), vehicle: saline with Tween-80.
The mark [6] stands for this setting: endpoint: mean survival time, dose: 100.0 mg/kg/injection, schedule: Q01DX009 (ip), vehicle: saline with Tween-80.
The mark [7] stands for this setting: endpoint: mean survival time, dose: 200.0 mg/kg/injection, schedule: Q01DX009 (ip), vehicle: saline with Tween-80.
Where [8] appears, read: endpoint: mean survival time, dose: 400.0 mg/kg/injection, schedule: Q01DX009 (ip), vehicle: saline with Tween-80.
Where [9] appears, read: endpoint: mean survival time, dose: 400.0 mg/kg/injection, schedule: Q04DX003 (ip), vehicle: saline.
Setting [10] is: endpoint: mean survival time, dose: 75.0 mg/kg/injection, schedule: Q01DX001 (ip), vehicle: saline.
[11] abbreviates: endpoint: mean survival time, dose: 150.0 mg/kg/injection, schedule: Q01DX001 (ip), vehicle: saline.
[12] abbreviates: endpoint: mean survival time, dose: 100.0 mg/kg/injection, schedule: Q01DX009 (ip), vehicle: saline.

Molecules are shown by their SMILES. “And” between values parts separate entries of the source, which are not always exact repeats. Identical values can stand only once. Inconclusive results and toxic doses are left out.

Take `Cc1cc(C)[nH]c(=S)n1.[Pt]`: the T/C is, setting by setting: (endpoint: mean survival time, dose: 3.12 mg/kg/injection, schedule: Q04DX003 (ip), vehicle: saline with Tween-80) 104 % of control; (endpoint: mean survival time, dose: 3.12 mg/kg/injection, schedule: Q04DX003 (ip), vehicle: saline) 120 % of control and 108 % of control; (endpoint: mean survival time, dose: 6.25 mg/kg/injection, schedule: Q04DX003 (ip), vehicle: saline with Tween-80) 102 % of control; (endpoint: mean survival time, dose: 6.25 mg/kg/injection, schedule: Q04DX003 (ip), vehicle: saline) 117 % of control and 96 % of control; (endpoint: mean survival time, dose: 12.5 mg/kg/injection, schedule: Q04DX003 (ip), vehicle: saline with Tween-80) 101 % of control; (endpoint: mean survival time, dose: 12.5 mg/kg/injection, schedule: Q04DX003 (ip), vehicle: saline) 96 % of control. For the same compound, the T/C by setting is: (endpoint: mean survival time, dose: 25.0 mg/kg/injection, schedule: Q04DX003 (ip), vehicle: saline with Tween-80) 98 % of control; (endpoint: mean survival time, dose: 25.0 mg/kg/injection, schedule: Q04DX003 (ip), vehicle: saline) 102 % of control; (endpoint: mean survival time, dose: 50.0 mg/kg/injection, schedule: Q04DX003 (ip), vehicle: saline with Tween-80) 101 % of control; (endpoint: mean survival time, dose: 50.0 mg/kg/injection, schedule: Q04DX003 (ip), vehicle: saline) 96 % of control and 97 % of control; under setting [1], 101 % of control; under setting [2], 120 % of control and 96 % of control. For the same compound, the T/C under setting [3] was 107 % of control and the T/C under setting [4] was 106 % of control.

For the compound `CCCCCC(/C=N\N=C\c1ccco1)=C\c1ccccc1`, the T/C is, setting by setting: under setting [1], 93 % of control; under setting [3], 93 % of control; under setting [5], 96 % of control.

With `OCC1OC(n2cc(I)c3c2ncn2ccnc32)C(O)C1O` (configuration not stated), the T/C is 92 % of control (endpoint: mean survival time, dose: 1.56 mg/kg/injection, schedule: Q01DX005 (ip), vehicle: water); 92 % of control (endpoint: mean survival time, dose: 3.13 mg/kg/injection, schedule: Q01DX005 (ip), vehicle: water); 97 % of control (endpoint: mean survival time, dose: 6.25 mg/kg/injection, schedule: Q01DX005 (ip), vehicle: water); 104 % of control (endpoint: mean survival time, dose: 12.5 mg/kg/injection, schedule: Q01DX005 (ip), vehicle: water); 100 % of control (endpoint: mean survival time, dose: 25.0 mg/kg/injection, schedule: Q01DX005 (ip), vehicle: water).

As to `O=C(N/N=C/c1ccccc1O)c1ccncc1`, the T/C runs as follows: under setting [6], 98 % of control; under setting [1], 98 % of control; under setting [7], 95 % of control; under setting [3], 96 % of control; under setting [8], 98 % of control; under setting [5], 98 % of control.

On to `Oc1ccc(Sc2ccc(O)cc2O)c(O)c1`, for which the T/C reads like this: under setting [2], 101 % of control; under setting [4], 103 % of control; under setting [9], 93 % of control.

In the case of `NC(=O)C1=CC2C3C=CC2(O)C(=O)OC3O1` (configuration not stated), the T/C is 108 % of control (endpoint: median survival time, dose: 1.9 mg/kg/injection, schedule: Q01DX009 (ip), vehicle: Klucel (hydroxypropylcellulose) (HPC)); 120 % of control (endpoint: median survival time, dose: 3.75 mg/kg/injection, schedule: Q01DX009 (ip), vehicle: Klucel (hydroxypropylcellulose) (HPC)); 118 % of control (endpoint: median survival time, dose: 7.5 mg/kg/injection, schedule: Q01DX009 (ip), vehicle: Klucel (hydroxypropylcellulose) (HPC)); 117 % of control (endpoint: median survival time, dose: 15.0 mg/kg/injection, schedule: Q01DX009 (ip), vehicle: Klucel (hydroxypropylcellulose) (HPC)); 121 % of control and 110 % of control (endpoint: median survival time, dose: 30.0 mg/kg/injection, schedule: Q01DX009 (ip), vehicle: Klucel (hydroxypropylcellulose) (HPC)).

`CC1(C)N=C(N)N=C(N)N1c1cccc(C#N)c1`: the T/C was 112 % of control (endpoint: mean survival time, dose: 17.0 mg/kg/injection, schedule: Q01DX009 (ip), vehicle: saline); 117 % of control (endpoint: mean survival time, dose: 25.0 mg/kg/injection, schedule: Q01DX009 (ip), vehicle: saline); 120 % of control (endpoint: mean survival time, dose: 37.5 mg/kg/injection, schedule: Q01DX009 (ip), vehicle: saline); 104 % of control under setting [10]; 113 % of control under setting [11].

In the case of `Cc1cc2c(ccc3c2ccc2cccc(C)c23)c2ccccc12`, the T/C under setting [10] was 95 % of control; the T/C under setting [11] was 88 % of control; the T/C (endpoint: mean survival time, dose: 300.0 mg/kg/injection, schedule: Q01DX001 (ip), vehicle: saline) is 94 % of control.

Consider `NC(=S)N/N=C/c1ccc(C(F)(F)F)cn1`, for which the T/C is, setting by setting: (endpoint: mean survival time, dose: 12.5 mg/kg/injection, schedule: Q04DX002 (ip), vehicle: saline with Tween-80) 100 % of control and 102 % of control; (endpoint: mean survival time, dose: 13.3 mg/kg/injection, schedule: Q01DX001 (ip), vehicle: saline with Tween-80) 96 % of control; (endpoint: mean survival time, dose: 13.3 mg/kg/injection, schedule: Q01DX009 (ip), vehicle: Klucel (hydroxypropylcellulose) (HPC)) 100 % of control; (endpoint: mean survival time, dose: 13.3 mg/kg/injection, schedule: Q01DX009 (ip), vehicle: saline with Tween-80) 122 % of control; (endpoint: mean survival time, dose: 20.0 mg/kg/injection, schedule: Q01DX001 (ip), vehicle: saline with Tween-80) 100 % of control; (endpoint: mean survival time, dose: 20.0 mg/kg/injection, schedule: Q01DX009 (ip), vehicle: Klucel (hydroxypropylcellulose) (HPC)) 96 % of control. In addition, the T/C reads like this: (endpoint: mean survival time, dose: 20.0 mg/kg/injection, schedule: Q01DX009 (ip), vehicle: saline with Tween-80) 171 % of control; (endpoint: mean survival time, dose: 25.0 mg/kg/injection, schedule: Q04DX002 (ip), vehicle: saline with Tween-80) 105 % of control and 107 % of control; (endpoint: mean survival time, dose: 30.0 mg/kg/injection, schedule: Q01DX001 (ip), vehicle: saline with Tween-80) 107 % of control; (endpoint: mean survival time, dose: 30.0 mg/kg/injection, schedule: Q01DX009 (ip), vehicle: Klucel (hydroxypropylcellulose) (HPC)) 106 % of control; (endpoint: mean survival time, dose: 45.0 mg/kg/injection, schedule: Q01DX001 (ip), vehicle: saline with Tween-80) 108 % of control; (endpoint: mean survival time, dose: 45.0 mg/kg/injection, schedule: Q01DX009 (ip), vehicle: saline with Tween-80) 102 % of control. For the same compound, the T/C runs as follows: (endpoint: mean survival time, dose: 50.0 mg/kg/injection, schedule: Q04DX002 (ip), vehicle: saline with Tween-80) 105 % of control; (endpoint: mean survival time, dose: 67.5 mg/kg/injection, schedule: Q01DX001 (ip), vehicle: saline with Tween-80) 111 % of control.

Regarding `Nc1nc(N)c(N=Nc2ccc(SCC(=O)O)cc2)c(=O)[nH]1`, the T/C is 100 % of control under setting [6], 94 % of control under setting [7] and 101 % of control under setting [8].

Take `Cc1cn(C2CC(O)C(COP(N)(N)=O)O2)c(=O)[nH]c1=O` (configuration not stated): the T/C runs as follows: (endpoint: mean survival time, dose: 12.5 mg/kg/injection, schedule: Q01DX005 (ip), vehicle: distilled water + Tween-80) 98 % of control; (endpoint: mean survival time, dose: 25.0 mg/kg/injection, schedule: Q01DX005 (ip), vehicle: distilled water + Tween-80) 98 % of control; (endpoint: mean survival time, dose: 50.0 mg/kg/injection, schedule: Q01DX005 (ip), vehicle: distilled water + Tween-80) 98 % of control; (endpoint: mean survival time, dose: 100.0 mg/kg/injection, schedule: Q01DX005 (ip), vehicle: distilled water + Tween-80) 96 % of control; (endpoint: mean survival time, dose: 200.0 mg/kg/injection, schedule: Q01DX005 (ip), vehicle: distilled water + Tween-80) 98 % of control.

For `Cc1ccc2c(c1)C(=NCCCN=C1C(=O)Nc3ccc(C)cc31)C(=O)N2`, the T/C by setting is: (endpoint: mean survival time, dose: 100.0 mg/kg/injection, schedule: Q01DX001 (ip), vehicle: saline with Tween-80) 103 % of control; (endpoint: mean survival time, dose: 200.0 mg/kg/injection, schedule: Q01DX001 (ip), vehicle: saline with Tween-80) 95 % of control; (endpoint: mean survival time, dose: 400.0 mg/kg/injection, schedule: Q01DX001 (ip), vehicle: saline with Tween-80) 98 % of control.

For `CC(C)(C)c1cc(CN2CCCC(O)C2)c(O)c(-c2ccccc2)c1` (configuration not stated), the T/C runs as follows: (endpoint: mean survival time, dose: 50.0 mg/kg/injection, schedule: Q01DX009 (ip), vehicle: saline) 107 % of control; under setting [12], 104 % of control.

Regarding `C#CCn1c2ccccc2c2ccccc21`, the T/C was 106 % of control under setting [2], 98 % of control under setting [4] and 104 % of control under setting [9].

Take `O=C(O)C1(C(=O)O)CCC1`: the T/C was 92 % of control (endpoint: mean survival time, dose: 100.0 mg/kg/injection, schedule: Q04DX002 (ip), vehicle: saline) and 111 % of control (endpoint: mean survival time, dose: 200.0 mg/kg/injection, schedule: Q04DX002 (ip), vehicle: saline).

Turning to `OC1CC2C=CC1CC2` (configuration not stated), the T/C was 97 % of control under setting [12]; 94 % of control (endpoint: mean survival time, dose: 200.0 mg/kg/injection, schedule: Q01DX009 (ip), vehicle: saline); 100 % of control (endpoint: mean survival time, dose: 400.0 mg/kg/injection, schedule: Q01DX009 (ip), vehicle: saline).

Consider `Cc1ccc(C)c(NC(=O)c2ccc(Cl)cc2Cl)c1`, for which the T/C runs as follows: under setting [1], 98 % of control; under setting [3], 98 % of control; under setting [5], 96 % of control.
